According to article PMC12663137 (Nature Communications, 2025):
Several values for one entry are separate records, joined by “and”; a condition that tells them apart may be missing. Equal values may be shown once.

Columns and labels:
[1] = Solubility remark (cryo-EM sample preparation); assay type: physicochemical; conditions: concentration could not be increased further
Description: convulsions (Daniels V, Wood M, Leclercq K, Kaminski RM, Gillard M. Modulation of the conformational state of the SV2A protein by an allosteric mechanism as evidenced by ligand binding assays. Br J Pharmacol. 2013 […]
understanding of how USC1244283 modulates the binding of antiseizure drugs to SV2A, the cryo-EM structure of an SV2A-UCB1244283 complex should be determined. […]
allosteric site or also the primary binding site? Are there conformational changes without BRV or UCB-J […]
In our original submission, we mentioned our unsuccessful attempt to determine the structure of the SV2A– […]
These observations are consistent with the allosteric site not being well formed (i.e., very low aƯinity) in unliganded SV2A; orthosteric ligand binding induces the formation of the allosteric site (increased aƯinity).
We have expanded the text to make these points clearer. […]
endogenous substrate is bound to the transporter, or from other oƯ-target eƯects.
- Like reported for BRV in the above-mentioned preprint, UCB1244283 prevents dissociation of UCB-J by blocking the luminal gate. […] I think such […]
experiments are important to obtain further insights into the action of UCB1244283. […]
the orthosteric site and the vesicular lumen. […]
accessing the orthosteric site, and we have included additional discussion in the revision.
(1 picture or pasted object on this page, not shown here)

[2] = molecular target: T1, SV2AEM WT or SV2AEM F188A (Homo sapiens, UniProt Q7L0J3); experiment: Dissociation kinetics of 3H-UCB-J (Fig. 4E); assay type: binding; conditions: WT
T1 construct: expressed in transfected cells; host or cells: HEK293 (ATCC CRL-1573), crude membranes
Protocol: Ligand binding studies were carried out using crude membranes prepared from HEK293 cells (ATCC, CRL-1573) overexpressing mVenus-SV2AWT or SV2AEM. Membranes were prepared either from transiently transfected cells or from baculovirus-infected cells as described previously. Cells were washed with DPBS (Ca^2+ and Mg^2+ free), followed by resuspending in cold SH buffer (10 mM HEPES-Tris pH 7.4, 320 mM sucrose) containing protease inhibitor cocktail (MedChemExpress) to a density of 10^7 cells/ml. This cell suspension was homogenized by passing through a bead homogenizer (Isobiotec) with 10-micron clearance bead on ice. The lysate was then centrifuged at 4000 × g for 5 min at 4 °C, and the supernatant was aliquoted, frozen in liquid nitrogen, and stored at −80 °C. The mVenus fluorescence estimated using fluorescence size-exclusion chromatography (FSEC) was used to normalize expression levels of mVenus-SV2A mutants studied as detailed previously. For all binding studies, membranes containing […] protein (estimated by BCA method) per reaction were used.
After 2 h of incubation, ligand dissociation was initiated with 0.3 µM ^1H-UCB-J and radioactivity was monitored at indicated time points by trapping equal volume of membranes on PEI-treated Unifilter-GF/C 96-well filter plates. Dissociation half-life (t1/2) estimates were obtained by fitting the data to one-phase exponential decay using GraphPad Prism 10.

T1 sequence (Q7L0J3 141-742 F188A): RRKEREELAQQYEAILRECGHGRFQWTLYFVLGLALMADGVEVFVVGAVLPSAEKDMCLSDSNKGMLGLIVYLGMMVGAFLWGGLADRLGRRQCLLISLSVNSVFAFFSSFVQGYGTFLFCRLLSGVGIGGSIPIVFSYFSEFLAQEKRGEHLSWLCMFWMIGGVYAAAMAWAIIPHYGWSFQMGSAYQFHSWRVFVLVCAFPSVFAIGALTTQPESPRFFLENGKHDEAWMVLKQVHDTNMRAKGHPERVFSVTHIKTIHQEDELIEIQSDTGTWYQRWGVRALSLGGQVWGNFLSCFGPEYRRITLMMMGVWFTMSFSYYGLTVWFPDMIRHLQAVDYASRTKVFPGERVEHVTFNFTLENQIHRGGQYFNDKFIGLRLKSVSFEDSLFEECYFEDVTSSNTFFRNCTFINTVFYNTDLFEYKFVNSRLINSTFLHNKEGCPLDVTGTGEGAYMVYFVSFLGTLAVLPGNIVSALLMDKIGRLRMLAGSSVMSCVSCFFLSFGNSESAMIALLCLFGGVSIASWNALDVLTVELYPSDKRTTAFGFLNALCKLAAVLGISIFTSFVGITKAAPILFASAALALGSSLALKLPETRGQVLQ

solubility [1]: poor solubility
3H-UCB-J Binding (%) ([2]; 30 µM UCB1244283, 0 min): 159.90% and 202.86% and 206.18%
3H-UCB-J Binding (%) ([2]; 30 µM UCB1244283, 4 min): 62.83% and 91.12% and 108.82%
3H-UCB-J Binding (%) ([2]; 30 µM UCB1244283, 5 min): 85.26% and 105.06% and 94.83%
3H-UCB-J Binding (%) ([2]; 30 µM UCB1244283, 6 min): 84.91% and 66.93% and 87.39%
3H-UCB-J Binding (%) ([2]; 30 µM UCB1244283, 7 min): 43.33% and 65.94% and 53.85%
3H-UCB-J Binding (%) ([2]; 30 µM UCB1244283, 8 min): 39.38% and 72.33% and 39.29%
3H-UCB-J Binding (%) ([2]; 30 µM UCB1244283, 9 min): 42.32% and 69.81% and 52.93%
3H-UCB-J Binding (%) ([2]; 30 µM UCB1244283, 10 min): 57.05% and 78.11% and 55.34%
3H-UCB-J Binding (%) ([2]; 30 µM UCB1244283, 20 min): 16.75% and 27.97% and 21.29%
3H-UCB-J Binding (%) ([2]; 30 µM UCB1244283, 25 min): 30.01% and 19.16% and 35.10%
3H-UCB-J Binding (%) ([2]; 30 µM UCB1244283, 50 min): 2.00% and 8.63% and 4.06%
3H-UCB-J Binding (%) ([2]; 30 µM UCB1244283, 60 min): 0.00%
3H-UCB-J Binding (%) ([2]; 30 µM UCB1244283, 70 min): 13.54% and 8.21%
Compound: COc1ccccc1NC(=O)CC(C)Cc1cc(C)cc(C)c1 (centres unmarked) [UCB1244283]
